Patent US9422321B2, “Pyrimidine nucleoside derivatives, synthesis methods and uses thereof for preparing anti-tumor and anti-virus medicaments” (High & New Technology Research Center, Henan Academy of …, priority 2010, dated 2016)
Where “and” joins values, the source holds several entries; their conditions need not be identical. Equal entries are not always repeated.

Key:
[1] = system: HBsAg; assay: In vitro inhibition of HBV: HBsAg in HepG2.2.15 cells by ELISA; assay type: cell-based; details: Hepatitis B virus, HepG2.2.15, read-out: IC50 (μM) (HBsAg)
Procedure: (§1) A tube of frozen HepG2.2.15 cells taken from a liquid nitrogen tank was quickly placed into a water bath at 42° C. and shaken to thaw. DMEM complete medium (fetal bovine serum 10%, G418 380 μg/mL, Penicillin 100 U/ml, Streptomycin 100 U/ml) was used for cell culturing at conditions of 37° C. and 5% CO2. The number of cell passage in normal growing cells was once per 2-3 days.
(§2) The effect of a compound on HBV surface antigen s and antigen e in the cell culture was detected using a screening concentration lower than the half toxic concentration of the compound. HepG2.2.15 cells in logarithmic growth phase were selected and digested with trypsin into single cell suspension, and were seeded to a 24-well plate at a concentration of 2×10^4/mL, 1 mL per well. Media of different medicament concentrations were added, three wells for each concentration, and cells added with complete medium were set as normal control. Cell supernatants and cells at day 3, day 6 and day 9 were collected and kept under −20° C. The intracellular and extracellular expressions of e antigen and surface antigen at day 3, day 6 and day 9 were determined by ELISA.
(§3) 2.4 Effect of the Compound on HBeAg and HBsAg in HepG2.2.15 Cell Supernatant Detected by ELISA
(§4) The instructions of the kit were followed;
(§5) Measurement: OD value of each well was read from microplate reader using dual wavelength 450/630 nm.
(§6) Result determination: The Cutoff value was first calculated according to equation: COV=average OD of negative control×2.1. Then, if a sample had OD≧COV, the result was determined as positive, or if a sample had OD≦COV, the result was determined as negative.

[2] = system: HBeAg; assay: In vitro inhibition of HBV: HBeAg in HepG2.2.15 cells by ELISA; assay type: cell-based; details: Hepatitis B virus, HepG2.2.15, read-out: IC50 (μM) (HBeAg)
Procedure: as §1, §2, §3, §4, §5, §6

[3] = MTT test of cytotoxicity on HepG2.2.15 cells; assay type: cell-based; details: human, read-out: CC50 (μM) (HepG2. 2. 15)
Procedure: as §1
Cytotoxicity of the compound on HepG2.2.15 cells was tested with the MTT colorimetric assay established by Mosmann. After continuous incubation for 72 h, 10 μL MTT was added to each well. Four hours later, the supernatant was discarded and 200 μL DMSO was added to each well. The OD value in each well was read using a microplate reader (measurement wavelength 490 nm, reference wavelength 630 nm). The result was recorded and the percentage inhibition of HepG2.2.15 cells by each compound was calculated:
The half toxic concentration (TC50) of the medicament on cells was calculated according to the percentage inhibition of the cell by the medicament.

[4] = MTS test of effects of the compound on cell survival; assay type: cell-based; details: human, 293T cells
Procedure: Then, 20 μL freshly prepared mixture of MTS/PMS was added to each well and after 4 h incubation in the incubator at 37° C. with 5% CO2, the color was developed. The light absorption (OD) of each well at wavelengths 490 nm and 650 nm (background) was detected on an enzyme linked immuno analyzer, and the survival rate of cells was calculated.

[5] = system: VSVG/HIV-luc (NL4-3); assay: microbe, parasite or virus in culture; assay type: cell-based, HIV-1; details: Human immunodeficiency virus 1, NL43, HEK-293T, 48 h, read-out: EC50 (μM) VSVG/HIV-luc (NL4-3)
[6] = system: human lymphoma Raji cells; assay: Inhibition of cell growth by MTT reduction; assay type: cell-based; details: read-out: Inhibitory activity, IC50
Procedure: Cell culturing: Raji cells in RPMI1640 culture solution containing 10% fetal calf serum were incubated in an incubator at 37° C. with 5% CO2 for 2-3 days. Cells in logarithmic growth phase were used for the experiment.
Cells in logarithmic growth phase were taken and after the cell density was adjusted to 5×10^4 cells/mL, they were seeded to three 96-well plates separately, 100 μL per well. The culture solution was replaced after 24 h cell culturing. […] The blank group (for zeroing) was only added with RPMI1640 culture solution containing 10% fetal calf serum and no cell was added. The control group was added with an equal volume of RPMI1640 culture solution containing 10% fetal calf serum. Each group had 5 replicates. After cells were incubated for 24 h, 48 h and 72 h separately, 20 μL MTT solution (5 mg/mL) was added to each well followed by a 4 h incubation. The supernatant was removed by sucking it out and discarded. 150 μL DMSO was added per well, vortexed about 5 min to mix evenly. After the crystal was completely dissolved, the absorption (A) value at 570 nm of each well was tested within 20 min on enzyme-linked immuno analyzer. The experiment was repeated 3 times and the average was taken to calculate the inhibition rate of cell growth by the following equation. Inhibition rate of cell growth=(1−average A value of experimental group/average A value of control group)×100%

[7] = system: HCV-RNA; assay: In vitro anti-HCV activity, quantitative determination of HCV-RNA; assay type: cell-based, hepatitis C virus (HCV); details: for levels of HCV-RNA: control 0 μg/mL: Exp 1 5.3 × 10^2, Exp 2 4.0 × 10^2
Procedure: HCV replication cells (Avva.5) were cultivated in Dulbecco's modified Eagle medium containing 10% fetal calf serum and 1 mg/mL G418. 293-Sip-L cells were cultivated in Dulbecco's modified Eagle medium containing 10% fetal calf serum, 250 μg/mL G418 and 150 μg/mL hygromycin B.
Cells in a Φ60 mm Petri dish were incubated in positive medium containing 100 μL HCV for 12 h, then in fresh medium free of HCV that was replaced every day. When being tested for HCV-RNA seven days after the infection, cells were trypsinized and washed with Dulbecco's modified Eagle medium twice through a centrifugation method. The upper layer from the second wash (as a control) and the washed cells were collected in pairs and used for RNA extraction and RT-PCR test. The β-actin mRNA was determined simultaneously as a control.
The quantitative determination of HCV-RNA was performed using automatic PCR enzyme-linked immunoassay (version 2.0, Roche Diagnostics, Branchburg, N.J.).
The levels of HCV-RNA were determined using automatic PCR enzyme-linked immunoassay.

SMILES | IC50 [1] [µM] | IC50 [2] [µM] | CC50 at 72 h [3] [µM] | CC50 at 44 h [4] [µM] | EC50 [5] [µM] | IC50 [6] [µM] | levels of HCV-RNA ([7]; 0.06 μg/mL in the culture) | levels of HCV-RNA ([7]; 0.6 μg/mL in the culture) | levels of HCV-RNA ([7]; 6 μg/mL in the culture) | inhibitory effect on HCV ([7]; concentrations 6, 0.6 and 0.06 μg/mL)
CNc1ccn([C@@H]2O[C@@](CO)(N=[N+]=[N-])C(O)C2F)c(=O)n1 (stereo partly drawn) [Compound 5-28] | 6.26 | 14.3 | > 250 | ≥ 25 | 6.7 ± 4.7 | – | – | – | – | –
[N-]=[N+]=N[C@]1(CO)O[C@@H](n2ccc(NO)nc2=O)C(F)C1O (stereo partly drawn) [Compound 5-17] | 0.07 | 0.11 | 951 | ≥ 25 | 0.7 ± 0.2 | – | – | – | – | –
[N-]=[N+]=N[C@]1(CO)O[C@@H](n2ccc(N(CCO)CCO)nc2=O)C(F)C1O (stereo partly drawn) [Compound 5-19] | 0.009 | – | > 1250 | ≥ 25 | 0.8 ± 0.7 | 1.6 | – | – | – | –
COC(=O)C(C)Nc1ccn([C@@H]2O[C@@](CO)(N=[N+]=[N-])C(O)C2F)c(=O)n1 (stereo partly drawn) [Compound 7m] | 1.89 | 21.2 | 311 | ≥ 25 | 10 ± 6.6 | – | – | – | – | –
COC(=O)C[C@H](Nc1ccn([C@@H]2O[C@@](CO)(N=[N+]=[N-])C(O)C2F)c(=O)n1)C(=O)OC (stereo partly drawn) [Compound 8e] | 20.5 | 12.8 | 231 | ≥ 25 | 12 ± 2.8 | – | – | – | – | –
[N-]=[N+]=N[C@]1(CO)O[C@@H](n2ccc(N[C@@H](Cc3cc4ccccc4[nH]3)C(=O)O)nc2=O)C(F)C1O (stereo partly drawn) [Compound 8d] | 0.03 | 0.36 | ≥ 25 | ≥ 25 | 0.7 ± 0.1 | – | – | – | – | –
COC(=O)CC[C@H](Nc1ccn([C@@H]2O[C@@](CO)(N=[N+]=[N-])C(O)C2F)c(=O)n1)C(=O)OC (stereo partly drawn) [Compound 7b] | 0.02 | 6.16 | > 1250 | ≥ 25 | 0.7 ± 0.1 | 28 | – | – | – | –
[N-]=[N+]=N[C@]1(CO)O[C@@H](n2ccc(NCCN)nc2=O)C(F)C1O (stereo partly drawn) [Compound 5-02] | 8.05 | – | ≥ 25 | ≥ 25 | 0.093 ± 0.067 | 45 | 4.5 × 10^2 and 4.2 × 10^2 | 0.90 × 10^2 and 0.70 × 10^2 | 1.0 × 10^2 and 0.80 × 10^2 | exhibited inhibitory effect
